# According to patent US9802941B2, “Compounds and methods for inhibiting histone demethylases” (Gilead Sciences, Inc., priority 2014, dated 2017):
# pIC50: −log10 of the molar value. Like-named read-outs stand apart in the source and are kept apart here.
# How the values were obtained:
# Assay type in all cases: biochemical
# PHF8 (KDM7) = target: T1, PHF8 (KDM7) (Homo sapiens, UniProt Q9UPP1); test: Histone lysine demethylase AlphaLISA assay, PHF8
# T1 construct: KDM7 (PHF8); BRIC; 1-1322; Bac
# How it was run: (§1)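 Enzyme was preincubated in buffer (50 mM Hepes pH 7.4-8.0, 0.003-0.01% Tween-20, 0.1% BSA, 5 μM (NH4)2Fe(SO4)2), then added to compound in DMSO and incubated 10 minutes before substrate. After reaction at room temperature, acceptor and streptavidin donor beads were added and AlphaLISA signal read.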
# KDM4C (JMJD2C) = target: T2, KDM4C (JMJD2C) (Homo sapiens, UniProt Q9H3R0); test: Histone lysine demethylase AlphaLISA assay, KDM4C
# T2 construct: KDM4C; BRIC, Denmark; 1-349; E. coli; host or cells: E. coli
# T2 sequence (Q9H3R0 1-349): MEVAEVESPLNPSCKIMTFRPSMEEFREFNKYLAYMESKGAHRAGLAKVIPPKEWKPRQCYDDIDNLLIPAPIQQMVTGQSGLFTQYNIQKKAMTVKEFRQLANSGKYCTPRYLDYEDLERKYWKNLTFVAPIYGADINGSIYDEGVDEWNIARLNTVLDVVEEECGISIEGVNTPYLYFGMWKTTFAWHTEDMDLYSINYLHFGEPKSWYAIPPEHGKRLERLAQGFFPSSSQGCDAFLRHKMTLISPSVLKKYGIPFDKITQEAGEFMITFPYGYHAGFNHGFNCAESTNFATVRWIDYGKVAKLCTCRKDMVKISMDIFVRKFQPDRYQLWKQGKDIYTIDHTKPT
# How it was run: as §1
# KDM6A (UTX) = target: T3, KDM6A (UTX) (Homo sapiens, UniProt O15550); test: Histone lysine demethylase AlphaLISA assay, KDM6A
# T3 construct: KDM6A (UTX); BRIC; 919-1401; E. coli; host or cells: E. coli
# T3 sequence (O15550 919-1401): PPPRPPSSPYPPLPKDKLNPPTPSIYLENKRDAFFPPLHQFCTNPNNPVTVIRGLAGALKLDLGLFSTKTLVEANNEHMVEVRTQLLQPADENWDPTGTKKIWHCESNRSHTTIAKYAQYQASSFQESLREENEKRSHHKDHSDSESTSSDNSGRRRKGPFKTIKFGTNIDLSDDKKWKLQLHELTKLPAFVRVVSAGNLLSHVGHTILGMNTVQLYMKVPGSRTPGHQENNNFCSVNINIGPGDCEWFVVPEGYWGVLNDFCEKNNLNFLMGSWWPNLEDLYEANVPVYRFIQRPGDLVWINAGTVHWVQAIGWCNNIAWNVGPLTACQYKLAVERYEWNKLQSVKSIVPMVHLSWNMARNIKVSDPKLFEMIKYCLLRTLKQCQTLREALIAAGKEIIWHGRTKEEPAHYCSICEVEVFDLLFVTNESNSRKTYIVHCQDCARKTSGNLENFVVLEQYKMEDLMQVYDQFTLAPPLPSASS
# Protocol: The compounds of the application, or a pharmaceutically acceptable salt, or solvate, or prodrug thereof, are tested in an in vitro AlphaLISA assay. Enzymes are dissolved in enzyme buffer and incubated before they are added to DMSO solutions of compounds of the application, or a pharmaceutically acceptable salt, or solvate, or prodrug thereof, in enzyme buffer. The reaction mixture is then incubated for an additional period of time before substrate solution is added and then the resulting mixture again incubated. Acceptor beads and suspended Epigenetic Buffer from stock are added and the suspension is again incubated before a suspension of streptavidin donor beads in Epigenetic Buffer is added. After an additional period of incubation, the plates are read.
# The ability of compounds of the application to inhibit the histone lysine demethylase activity in vitro of different enzymes was determined.
# The reaction mixture was incubated for another 10 minutes before 5 μL of substrate solution was added and the resulting mixture was then incubated at room temperature. […] After incubation at room temperature in the dark, the plates were read.
# Enzyme Buffer: 50 mM Hepes (pH 7.4-8.0), 0.003-0.01% Tween-20, 0.1% BSA; 5 μM (NH4)2Fe(SO4)2.
# KDM5B (PLU-1) = target: T4, KDM5B (PLU-1) (Homo sapiens, UniProt Q9UGL1); test: Histone lysine demethylase AlphaLISA assay, KDM5B
# T4 construct: BRIC; 1-809; E. coli; host or cells: E. coli
# T4 sequence (Q9UGL1 1-809): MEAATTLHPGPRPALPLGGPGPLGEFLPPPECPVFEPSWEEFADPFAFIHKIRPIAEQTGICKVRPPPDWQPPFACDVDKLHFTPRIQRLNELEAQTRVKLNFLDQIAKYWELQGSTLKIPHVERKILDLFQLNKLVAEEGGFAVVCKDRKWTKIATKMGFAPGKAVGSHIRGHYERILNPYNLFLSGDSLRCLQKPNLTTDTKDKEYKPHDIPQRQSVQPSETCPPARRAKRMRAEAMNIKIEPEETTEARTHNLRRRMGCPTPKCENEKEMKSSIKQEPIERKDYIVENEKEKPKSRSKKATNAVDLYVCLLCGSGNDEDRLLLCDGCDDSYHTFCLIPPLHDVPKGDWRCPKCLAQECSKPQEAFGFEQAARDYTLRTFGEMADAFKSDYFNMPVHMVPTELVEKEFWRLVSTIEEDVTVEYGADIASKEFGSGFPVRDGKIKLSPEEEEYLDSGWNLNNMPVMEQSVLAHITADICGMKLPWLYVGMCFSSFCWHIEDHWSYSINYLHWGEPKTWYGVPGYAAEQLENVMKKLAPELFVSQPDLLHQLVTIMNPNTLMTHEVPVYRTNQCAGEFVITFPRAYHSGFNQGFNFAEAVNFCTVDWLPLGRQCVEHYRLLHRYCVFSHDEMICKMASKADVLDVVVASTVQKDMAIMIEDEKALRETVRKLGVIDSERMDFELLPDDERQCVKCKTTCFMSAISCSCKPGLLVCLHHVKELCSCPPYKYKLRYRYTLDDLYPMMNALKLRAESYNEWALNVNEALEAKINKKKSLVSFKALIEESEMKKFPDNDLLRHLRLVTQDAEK
# How it was run: as §1
# KDM2B (FBXL10) = target: T5, KDM2B (FBXL10) (Homo sapiens, UniProt Q8NHM5); test: Histone lysine demethylase AlphaLISA assay, KDM2B
# T5 construct: KDM2B; BPS,; 1-650; Bac; purchased BPS Bioscience, US; host or cells: baculovirus system
# T5 sequence (Q8NHM5 1-650): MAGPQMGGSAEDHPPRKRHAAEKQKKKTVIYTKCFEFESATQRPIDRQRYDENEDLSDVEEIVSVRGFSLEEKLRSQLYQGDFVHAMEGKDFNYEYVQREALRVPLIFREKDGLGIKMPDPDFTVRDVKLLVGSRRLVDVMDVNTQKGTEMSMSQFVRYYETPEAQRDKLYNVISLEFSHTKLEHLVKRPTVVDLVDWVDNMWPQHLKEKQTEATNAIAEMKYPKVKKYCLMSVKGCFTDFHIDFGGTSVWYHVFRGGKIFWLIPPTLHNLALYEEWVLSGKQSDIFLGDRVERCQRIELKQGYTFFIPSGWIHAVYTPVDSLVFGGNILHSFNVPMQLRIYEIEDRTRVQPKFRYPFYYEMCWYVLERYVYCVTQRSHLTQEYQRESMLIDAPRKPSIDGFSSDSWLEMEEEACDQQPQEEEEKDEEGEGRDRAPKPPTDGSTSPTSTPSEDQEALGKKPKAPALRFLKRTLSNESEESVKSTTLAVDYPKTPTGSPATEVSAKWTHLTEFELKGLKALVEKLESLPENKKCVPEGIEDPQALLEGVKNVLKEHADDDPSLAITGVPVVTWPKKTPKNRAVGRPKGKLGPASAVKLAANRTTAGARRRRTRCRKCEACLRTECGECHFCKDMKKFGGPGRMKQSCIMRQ
# How it was run: as §1
# [1] = AlphaLISA assay, read-out: HDME Inhibition PHF8 (IC50)
# [2] = AlphaLISA, in vitro, read-out: HDME Inhibition PHF8
# [3] = AlphaLISA assay, read-out: HDME Inhibition KDM4C (IC50)
# [4] = AlphaLISA, in vitro, read-out: HDME Inhibition KDM4C
# [5] = AlphaLISA assay, read-out: HDME Inhibition KDM6A (IC50)
# [6] = AlphaLISA, in vitro, read-out: HDME Inhibition KDM6A
# [7] = AlphaLISA assay, read-out: HDME Inhibition KDM5B (IC50)
# [8] = AlphaLISA, in vitro, read-out: HDME Inhibition KDM5B
# [9] = AlphaLISA, in vitro, read-out: HDME Inhibition KDM2B
# T1 sequence (Q9UPP1 37-440 limits assumed): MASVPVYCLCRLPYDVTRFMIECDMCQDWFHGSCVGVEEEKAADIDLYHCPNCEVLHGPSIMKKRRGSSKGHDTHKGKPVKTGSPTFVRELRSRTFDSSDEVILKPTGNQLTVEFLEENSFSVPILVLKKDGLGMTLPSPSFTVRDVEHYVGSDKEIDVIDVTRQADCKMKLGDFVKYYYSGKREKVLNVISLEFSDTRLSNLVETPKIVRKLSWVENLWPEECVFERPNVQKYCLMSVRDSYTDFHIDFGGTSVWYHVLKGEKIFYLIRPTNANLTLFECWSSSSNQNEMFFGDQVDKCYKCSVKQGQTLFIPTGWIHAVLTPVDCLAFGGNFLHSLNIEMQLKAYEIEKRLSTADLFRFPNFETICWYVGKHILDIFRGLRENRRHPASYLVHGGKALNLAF
SMILES,pIC50 (PHF8 (KDM7); [1]),pIC50 (PHF8 (KDM7); [2]),pIC50 (KDM4C (JMJD2C); [3]),pIC50 (KDM4C (JMJD2C); [4]),pIC50 (KDM6A (UTX); [5]),pIC50 (KDM6A (UTX); [6]),pIC50 (KDM5B (PLU-1); [7]),pIC50 (KDM5B (PLU-1); [8]),pIC50 (KDM2B (FBXL10); [9]),"pIC50 (KDM2B (FBXL10); AlphaLISA assay, read-out: HDME Inhibition KDM2B (IC50))",pIC50 (KDM5B (PLU-1))
"Cc1cc(C(=O)O)cc(CNCc2ncc(CCCc3ccccc3)n2Cc2ccc(F)cc2)n1 [Compound 31, 2-{[({1-[(4-fluorophenyl)methyl]-5-(3-phenylpropyl)-1H-imidazol-2-yl}methyl)amino]methyl}-6-methylpyridine-4-carboxylic acid]",< 5.00,< 5.00,< 5.00,< 5.00,< 5.00,< 5.00,< 5.00,< 5.00,5.40,,
"COc1ccc(CCn2ccnc2CNCc2cc(C(=O)O)cc(C)n2)cc1 [Compound 17, 2-{[({1-[2-(4-methoxyphenyl)ethyl]-1H-imidazol-2-yl}methyl)amino]methyl}-6-methylpyridine-4-carboxylic acid]",< 5.00,< 5.00,< 5.00,< 5.00,< 5.00,< 5.00,< 5.00,< 5.00,< 5.00,< 5.00,
"CC(=O)c1ccc(Cn2ccnc2CNCc2cc(C(=O)O)cc(C)n2)cc1 [Compound 24, 2-{[({1-[(4-acetylphenyl)methyl]-1H-imidazol-2-yl}methyl)amino]methyl}-6-methylpyridine-4-carboxylic acid]",,,< 5.00,< 5.00,,5.08,,,5.65,,6.58
"CSc1nnc(CNCc2cc(C(=O)O)cc(C)n2)n1Cc1ccc(F)cc1 [Compound 36, 2-{[({4-[(4-fluorophenyl)methyl]-5-(methylsulfanyl)-4H-1,2,4-triazol-3-yl}methyl)amino]methyl}-6-methylpyridine-4-carboxylic acid]",,6.04,< 5.00,< 5.00,< 5.00,< 5.00,< 5.00,< 5.00,6.61,,
"Cc1cc(C(=O)O)cc(CNCc2ncc(CCc3ccccc3)n2Cc2ccc(F)cc2)n1 [Compound 28, 2-{[({1-[(4-fluorophenyl)methyl]-5-(2-phenylethyl)-1H-imidazol-2-yl}methyl)amino]methyl}-6-methylpyridine-4-carboxylic acid]",,5.97,< 5.00,< 5.00,< 5.00,< 5.00,< 5.00,< 5.00,6.34,,
"COCc1cc(C(=O)O)cc(CNCc2nccn2Cc2ccc(F)cc2)n1 [Compound 2, 2-{[({1-[(4-fluorophenyl)methyl]-1H-imidazol-2-yl}methyl)amino]methyl}-6-(methoxymethyl)pyridine-4-carboxylic acid]",< 5.00,< 5.00,< 5.00,< 5.00,< 5.00,< 5.00,< 5.00,< 5.00,5.53,,
"Cc1cc(C(=O)O)cc(CNCCc2ncccc2CCC(C)C)n1 [Compound 20, 2-methyl-6-[({2-[3-(3-methylbutyl)pyridin-2-yl]ethyl}amino)methyl]pyridine-4-carboxylic acid]",< 5.00,< 5.00,< 5.00,< 5.00,< 5.00,< 5.00,< 5.00,< 5.00,5.27,,
"Cc1cc(C(=O)O)cc(CNCc2nccn2CCc2cncnc2)n1 [Compound 26, 2-methyl-6-{[({1-[2-(pyrimidin-5-yl)ethyl]-1H-imidazol-2-yl}methyl)amino]methyl}pyridine-4-carboxylic acid]",,5.99,< 5.00,< 5.00,< 5.00,< 5.00,,,6.25,,5.52
"C/C=C\c1cnc(CNCc2cc(C(=O)O)cc(C)n2)n1Cc1ccc(F)cc1 [Compound 35, 2-{[({1-[(4-fluorophenyl)methyl]-5-[(1Z)-prop-1-en-1-yl]-1H-imidazol-2-yl}methyl)amino]methyl}-6-methylpyridine-4-carboxylic acid]",,6.36,< 5.00,< 5.00,< 5.00,< 5.00,< 5.00,< 5.00,6.93,,
"Cc1cc(C(=O)O)cc(CNCCc2ncccc2Br)n1 [Compound 11, 2-({[2-(3-bromopyridin-2-yl)ethyl]amino}methyl)-6-methylpyridine-4-carboxylic acid]",,5.16,< 5.00,< 5.00,< 5.00,< 5.00,,5.26,5.81,,
"Cc1cc(C(=O)O)cc(CNCc2ncc(C(C)C)n2Cc2ccc(F)cc2)n1 [Compound 8, 2-{[({1-[(4-fluorophenyl)methyl]-5-(propan-2-yl)-1H-imidazol-2-yl}methyl)amino]methyl}-6-methylpyridine-4-carboxylic acid]",,6.42,< 5.00,< 5.00,< 5.00,< 5.00,< 5.00,< 5.00,6.82,,
